Where “and” joins values, the source holds several entries; their conditions need not be identical. Equal values may be shown once.
Legend:
[1] = tested on: MBP specific T-cells; experiment: Treatment of supernatants with anti-cytokine antibodies; format: cell-based, Lewis rats; settings: added to spleen cells of MBP-fed animals stimulated with MBP; FIG. 2
Experimental: In Vitro Suppression Of Proliferative Responses By Supernatants. Spleen cells were removed 7-14 days after the last feeding and a single cell suspension prepared by pressing the spleens through a stainless steel mesh. For preparation of supernatants, spleen cells at a concentration of 5×10^6 cells/ml were stimulated in vitro with MBP (50 μg/ml) in 10 ml of proliferation medium. Proliferation medium consisted of RPMI 1640 (GIBCO, Grand Island, N.Y.) supplemented with 2×10^−5 M 2-mercaptoethanol, 1% sodium pyruvate, 1% penicillin and streptomycin, 1% glutamine, 1% HEPES buffer, 1% nonessential amino acids and 1% autologous serum. Supernatants were harvested at 24 hours and 100 μl added to 2.5×10^4 MBP specific T-cells, raised and maintained as previously described (Ben-Nun, A. et al., Eur. J. Immunol. 11:195-199, 1981), cultured with 5×10^5 irradiated (2500 rad) thymocytes, in 100 μl of proliferation media. MBP ([…]) was added to the culture in a volume of 20 μl. Experiments were performed in triplicate in round bottomed 96-well plates (Costar, Cambridge, Mass.). Cells were cultured for 72 hours at 37° C. in an incubator with humidified 6% CO2 and 94% air atmosphere, and each well was pulsed with 1 μCi of ^3H thymidine for the last 18 hours of culture. Cultures were harvested onto fiberglass filters using a multiharvester and counted using standard liquid scintillation techniques. […]

[2] = tested on: TGF-β; experiment: Measurement of TGF-β activity in serum-free culture supernatants of spleen cells; format: cell-based, Lewis rats; settings: spleen cells of fed animals stimulated in vitro with the fed antigen
Experimental: Measurement Of TGF-β Activity In Serum-Free Culture Supernatants. Serum free culture supernatants were collected as previously described (Kehri, et al. J. Exp. Med. 163: 1037-1050, 1986; Wahl, et al. J. […] Thereafter cells were washed three times and resuspended in serum-free medium for the remainder of the 72 hour culture, collected, then frozen until assayed. Determination of TGF-β content and isoform type in supernatants was performed using a mink lung epithelial cell line (American Type Culture Collection, Bethesda, Md. #CCL-64) according to Danielpour et al. (supra), and confirmed by a Sandwich Enzyme Linked Immunosorbent Assay (SELISA) assay as previously described (Danielpour et al. Growth Factors 2: 61-71,1989). The percent active TGF-β was determined by assay without prior acid activation of the samples.

[3] = tested on: MBP line; experiment: Transwell culture suppression of MBP T cell line; format: cell-based, Lewis rats; settings: MBP line + MBP
From the text: (§1) Transwell Cultures. A dual chamber transwell culture system (Costar, Cambridge, Mass.), which is 24.5 mm in diameter and consists of two compartments separated by a semi-permeable polycarbonate membrane, with a pore size of 0.4 μm, was used. The two chambers are 1 mm apart, allowing cells to be coin-cubated in close proximity without direct cell-to-cell contact. To measure in vitro suppression of proliferative responses in transwell cultures, 5×10^4 MBP- or OVA-specific line cells, raised and maintained as previously described (Ben-Nun, A. et al., Eur. J. Immunol. 11:195, 1981), were cultured with 10^6 irradiated (2,500 rad) thymocytes, in 600 μl of proliferation media in the lower well. Spleen cells from orally tolerized rats or controls (fed BSA) were added to the upper well (5×10^5 cells in 200 μl). Spleen cells were removed 7-14 days after the last feeding, and a single cell suspension was prepared by pressing the spleens through a stainless steel mesh. MBP and OVA (50 μg/ml) were added in a volume of 20 μl. […] In some experiments, modulator cells were added in the lower well together with responder cells, and in these instances modulator cells were irradiated (1,250 rad) immediately before being placed in culture. Proliferation media consisted of RPMI 1640 (Gibco Laboratories, Grand Island, N.Y.) supplemented with […] 2-mercaptoethanol, 1% sodium pyruvate, 1% penicillin and streptomycin, 1% glutamine, 1% HEPES buffer, 1% nonessential amino acids, and 1% autologous serum. Each transwell was performed in quadruplicate. The transwells were incubated at 37° C. in a humidified 6% CO2 and 94% air atmosphere for 72 hours. After 54 hours of culture, each lower well was pulsed with 4 μCi of [^3H]thymidine and at 72 hours split and reseeded to three wells in a round-bottomed 96-well plate (Costar) for harvesting onto fiberglass filters and counting using standard liquid scintillation techniques. Percent suppression =100×(1−Δ A cpm responders cultured with modulators/Δ cpm of responders).

[4] = tested on: EAE; experiment: In vivo bystander suppression of EAE (MBP/CFA plus secondary antigen); parameters: species or system Lewis rats
Experimental: Immunization Of Animals. Animals were immunized with 25 μg of MBP in the footpad, emulsified in an equal volume of CFA containing 4 mg/ml of Mycobacterium tuberculosis (Difco Labs, Detroit, Mich.) in order to induce a substantial EAE disease state. For in vivo bystander suppression experiments, 50-300 μg of the secondary antigens OVA, BSA or KLH were injected subcutaneously in the same footpad in 100 μl PBS 8 hours after primary immunization with MBP CFA.
Clinical Evaluation. Animals were evaluated in a blinded fashion every day for evidence of EAE in order to correlate the clinical manifestations of Bystander Suppression with the in vitro assays described below. Clinical severity of EAE was scored as follows: 0, no disease; 1, limp tail; 2, hind limb paralysis; 3, hind limb paraplegia, incontinence; 4, tetraplegia; 5, death. Mean maximal clinical severity was calculated as previously described for each experimental group (7). Statistical analysis was performed using a one-tailed student's t test and a chi square analysis for comparing incidence between groups.
Induction Of Oral Tolerance. Animals were fed 1 mg MBP, OVA, BSA or KLH dissolved in 1 ml PBS or PBS alone, by gastric intubation using an 18-gauge stainless steel animal feeding needle (Thomas Scientific, Swedesboro, N.J.). Animals were fed five times (total dose of 5 mg), at intervals of 2-3 days with the last feeding 2 days before immunization.

[5] = tested on: DTH responses to MBP or OVA; experiment: Delayed type hypersensitivity (DTH) testing, Example 2; format: in vivo, Lewis rats
Experimental: Delayed Type Hypersensitivity (DTH) Testing. DTH was tested by injecting 50 μg of MBP or OVA in PBS, subcutaneously into the ear. MBP was injected in the left ear and OVA in the right ear in the same animal. Thickness, in units of 0.01 inch, was measured in a blinded fashion, before and 48 hours after challenge, using micrometer calipers (Mitutoyo, Utsunomia, Japan). Change in ear thickness before and after challenge was recorded for each animal, and results were expressed as the mean for each experimental group ± SEM; each group consisted of five animals.

[6] = tested on: EAE; experiment: Adoptive transfer of disease suppression; format: in vivo, Lewis rats; settings: naive recipients immunized with MBP/CFA and given OVA subcutaneously; FIG. 9
Experimental: Adoptive Transfer Of Disease Suppression. In order to monitor the adoptive transfer of disease suppression occurring during Bystander Suppression donor rats were fed either 1 mg MBP, OVA, or KLH, five times at 2 day intervals and killed 7-14 days after the final feeding. Spleen cells were harvested, and incubated in vitro with the homologous antigen (50 μg/ml) in proliferation medium, for 72 hours. Cells were injected intraperitoneally: 10^8 cells for whole spleen populations or 5-6×10^7 cells for CD8− or CD4-depleted populations. Recipient animals were irradiated (250 rad) before adoptive transfer, immunized with MBP/CFA 6 hours after adoptive transfer, and challenged 8 hours later with 50 μg OVA.

[7] = tested on: rheumatoid arthritis symptoms; experiment: Oral collagen in humans with rheumatoid arthritis; format: in vivo; settings: 0.1-1.0 mg single dose daily
From the text: The above animal models can be used to establish the utility of the present invention in mammals (including humans). […] All of these human trials were attempted based on animal data using the appropriate disease model.

[8] = tested on: MBP-primed lymphoid cells; experiment: Proliferation of MBP-primed lymphoid cells in response to overlapping guinea pig MBP peptides; format: cell-based, rats; settings: lymph node cells triggered with MBP-peptides; FIG. 10
From the text: The disease-inducing fragments (autoimmune response epitopes) of MBP were first confirmed as follows: Overlapping peptides as detailed in FIG. 10, of guinea pig MBP were obtained from commercial sources or synthesized in accordance with well-known techniques, specifically using a commercial peptide synthesis apparatus (from Applied Biosystems) and following the manufacturer's instructions. Whole MBP was then fed to rats and lymph node cells from the orally tolerized animals were triggered with the MBP-peptides. The ability of the triggered cells to induce killer T-cells was then quantitatively determined by a proliferation assay also, as described in Examples 1 and 2, and by testing the ability of the proliferating cells to transfer the disease.

[9] = tested on: OVA (responder) line; experiment: Transwell triggering of suppression by MBP peptides; format: cell-based, rats; settings: peptide added to modulator well with spleen cells of MBP-fed animals; FIG. 11
From the text: as §1
The Transwell System of Example 2 above was used to identify the epitopes present on guinea pig MBP which induce the release of TGF-β from suppressor T-cells.
Peptides corresponding to guinea pig MBP residue nos.

[10] = tested on: EAE; experiment: EAE induced by guinea pig MBP 71-90, feeding of MBP peptides; format: in vivo, Lewis rats; settings: fed; FIG. 14
Experimental: The effects of feeding various peptides to Lewis rats induced for EAE by guinea pig MBP residue nos. 71-90 (the major immunodominant epitope of guinea pig MBP as shown in Example 3 above) were also studied.
EAE was induced by immunizing with 0.25 mg of guinea pig MBP amino acid residue nos 71-90 in Complete Freund's Adjuvant and the effect of feeding various guinea pig MBP peptides on EAE was examined.

[11] = tested on: DTH responses; experiment: DTH responses in animals fed MBP or MBP peptides; format: in vivo, Lewis rats; settings: FIG. 15
From the text: Guinea pig MBP peptide 131-150 was ineffective in this case. Peptides were also fed with STI which prevents their breakdown by gastric juices and enhances their biological effect. DTH responses to whole MBP were suppressed by feeding MBP or any one of the MBP-peptides 21-40, or 71-90.

[12] = tested on: EAE; experiment: I.V. tolerization with MBP and MBP peptides in EAE induced with whole guinea pig MBP; format: in vivo, SJL/J mice; settings: days 8 and 9 post immunization, FIG. 16
From the text: FIG. 16 is a bar graph showing the effect of intravenous tolerization with MBP and disease inducing and non-inducing fragments thereof on induced EAE expression in SJL/J mice.
Finally, the suppression of EAE by I.V. tolerization with MBP and MBP peptides prior to disease expression (on days 8 and 9 post immunization) was examined.

[13] = OVA-fed modulators + OVA in upper well
[14] = OVA-fed modulators in upper well without OVA

COc1ccc2c(c1)c(CC(=O)O)c(C)n2C(=O)c1ccc(Cl)cc1 [indomethacin]
effect on suppression mediated by the supernatants [1]: No effect on suppression

OVA: Ovalbumin purchased from Sigma
TGF-β in the active form [2]: 65±9%
amount of TGF-β ([2]; serum-free): 6.1 ± 1.0 ng/mL
Percent Suppression [3, 13]: 47%
Δ cpm [3, 13]: 37,778 ± 3,780 cpm
Percent Suppression [3, 14]: 6%
Δ cpm [3, 14]: 67,075 ± 2,904 cpm
disease severity ([4]; OVA fed (1 mg, five times) plus OVA given subcutaneously after MBP/CFA, FIG. 6B): 0.9±0.2
disease severity ([4]; OVA fed and KLH given subcutaneously (control group), FIG. 6B): 3.9±0.1
disease severity ([4]; animals fed OVA in whom KLH was given after MBP/CFA plus OVA subcutaneously, FIG. 6C, two values 'respectively'): 3.7±0.1 and 3.8±0.2
dose of secondary antigen given subcutaneously at which suppression of EAE occurred ([4]; fed antigen, same antigen subcutaneously after MBP/CFA): 50 µg
mean maximal clinical disease severity ([4]; not fed, OVA given subcutaneously in footpad 8 hours after MBP/CFA, FIG. 6A): 3.8±0.1
DTH response to OVA ([5]; OVA fed, OVA subcutaneously in association with MBP/CFA): did not generate an immune response to OVA
DTH responses to MBP ([5]; fed antigen, then immunized with MBP/CFA plus OVA, FIG. 7): Suppressed DTH responses to MBP
adoptive transfer of protection by spleen cells from fed animals [6]: adoptively transferred protection

collagen
rheumatoid arthritis symptoms (joint tenderness, AM stiffness, grip strength) [7]: successfully suppressed

guinea pig MBP 71-90: peptide spanning residue 71-90 of guinea pig MBP, the immunodominant epitope (SLPQKSQRSQDENPVVHFFK; UniProt P25188 71-90, looked up, fragment)
induction of killer T-cells (proliferation) [8]: by far the most efficient inducer of killer T-cells
triggering suppression of proliferation in the transwell system [9]: ineffective in triggering suppression
down-regulation of EAE induced by guinea pig MBP 71-90 [10]: equally effective in down-regulating EAE
DTH responses to guinea pig MBP peptide 71-90 [11]: suppressed
DTH responses to whole MBP [11]: suppressed
suppression of EAE induced with whole guinea pig MBP [12]: effective in suppressing EAE

From patent US6645504B1, “Bystander suppression of type I diabetes by oral administration of glucagon” (AutoImmune Inc., priority 1987, dated 2003)
